Test results reported in patent US12187684B2, “Benzimidazole derivatives as modulators of retinoid-related orphan receptor gamma (RORγ) and pharmaceutical use thereof” (Jiangsu Hengrui Medicine Co., Ltd., priority 2018, dated 2025).

Target: T1, RORγ LBD-GST tagged (Homo sapiens, UniProt P51449)
T1 construct: RORγ LBD-GST tagged (Cat No. RORC-114H, Creative Biomart); purchased Creative Biomart RORC-114H
T1 sequence (P51449 269-508 limits assumed): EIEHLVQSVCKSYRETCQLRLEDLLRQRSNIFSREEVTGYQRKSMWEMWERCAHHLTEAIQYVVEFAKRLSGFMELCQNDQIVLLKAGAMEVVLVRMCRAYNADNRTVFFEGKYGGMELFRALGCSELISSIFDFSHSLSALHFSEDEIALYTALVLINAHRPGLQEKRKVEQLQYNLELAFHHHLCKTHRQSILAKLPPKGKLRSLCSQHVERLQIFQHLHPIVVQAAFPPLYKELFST
Assay: LanthaScreen TR-FRET RORγ coactivator assay
Assay type: biochemical
Settings: Fluorescein-D22 coactivator peptide, 1 hour room temperature
Excerpt: LanthaScreen TR-FRET Retinoid-Related Orphan Receptor Gamma (RORγ) Coactivator Assay Materials and Reagents • 1. […] Fluorescein-D22 coactivator peptide (Cat No. PV4386, Invitrogen) • 3. LanthaScreen™ Tb anti-GST antibody (Cat No. PV3550, Invitrogen) • 4. TR-FRET coregulatory buffer D (Cat No, PV4420, Invitrogen) • 5. DTT (Cat No. P2325, Fisher) • 6. […] Tecan Infinite M1000 plate reader (Tecan) Experimental Procedure Prepare Complete TR-FRET Coregulator Buffer D by adding 1 M DTT to TR-FRET Coregulator Buffer D to the final concentration of 5 mM DTT. Make compound dilution in Complete TR-FRET Coregulator Buffer D. Highest dose is 3 μM, 7-folder dilution for total 7 doses. Add 10 μL to each well of a 384-well plate. For the negative and positive controls, add 10 μL of Complete TR-FRET Coregulator Buffer D. Prepare RORγ LBD using Complete TR-FRET Coregulator Buffer D. The final concentration of RORγ LBD is 25 ng/reaction. Add 5 μL RORγ LBD to all the wells of the 384-well assay plate except negative wells which adding 5 μL Complete TR-FRET Coregulator Buffer D. Prepare a solution containing 0.6 μM Fluorescein-D22 and 8 nM Tb anti-GST antibody using Complete TR-FRET Coregulator Buffer D. Add 5 μL to all wells of the 384-well assay plate. Briefly and gently mix the 384-well plate on a plate shaker and incubate at room temperature protected from light for 1 hour. The plate may be sealed with a cover to minimize evaporation. Read the plate at wavelengths of 520 nm and 495 nm on Tecan Infinite M1000. IC50 values were calculated using GraphPad Prism by plotting the logarithm of compounds concentration versus percent inhibition.

Structure (SMILES)	IC50 [µM]
CS(=O)(=O)c1ccc(C(CO)c2nc3c(Cl)c(-c4ccccc4OC(F)F)c(Cl)cc3[nH]2)cc1 (stereo not drawn) [Example 48, 2-(4,6-dichloro-5-(2-(difluoromethoxy)phenyl)-1H-benzo[d]imidazol-2-yl)-2-(4-(methylsulfonyl)phenyl)ethanol]	0.445
CCS(=O)(=O)c1ccc(C(CO)c2nc3c(F)c(-c4ccccc4OC(F)(F)F)c(F)cc3[nH]2)cc1 (stereo not drawn) [Example 109, 2-(4,6-difluoro-5-(2-(trifluoromethoxy)phenyl)-1H-benzo[d]imidazol-2-yl)-2-(4-(ethylsulfonyl)phenyl)ethanol]	1.04
CCS(=O)(=O)c1ccc(Cc2nc3c(F)c(-c4ccccc4OC(F)(F)F)c(F)cc3[nH]2)cc1 [Example 108, 2-(4-(ethylsulfonyl)benzyl)-4,6-difluoro-5-(2-(trifluoromethoxy)phenyl)-1H-benzo[d]imidazole]	0.032
CS(=O)(=O)c1ccc(Cc2nc3c(Cl)c(-c4ccccc4OC(F)(F)F)c(Cl)cc3[nH]2)c(Cl)c1 [Example 101, 4,6-dichloro-2-(2-chloro-4-(methylsulfonyl)benzyl)-5-(2-(trifluoromethoxy)phenyl)-1H-benzo[d]imidazole]	0.082
O=S(=O)(CCF)c1ccc(Cc2nc3c(Cl)c(-c4ccccc4C(F)(F)F)c(Cl)cc3[nH]2)cc1 [Example 63, 4,6-dichloro-2-(4-((2-fluoroethyl)sulfonyl)benzyl)-5-(2-(trifluoromethyl)phenyl)-1H-benzo[d]imidazole]	0.592
CCS(=O)(=O)c1ccc(C(O)c2nc3c(Cl)c(-c4ccccc4C(F)(F)F)c(Cl)cc3[nH]2)c(F)c1 (stereo not drawn) [Example 79, (4,6-dichloro-5-(2-(trifluoromethyl)phenyl)-1H-benzo[d]imidazol-2-yl)(4-(ethylsulfonyl)-2-fluorophenyl)methanol]	0.048
O=S(=O)(CCF)c1ccc(C(CO)c2nc3c(Cl)c(-c4ccccc4OC(F)(F)F)c(Cl)cc3[nH]2)cc1 (stereo not drawn) [Example 62, 2-(4,6-dichloro-5-(2-(trifluoromethoxy)phenyl)-1H-benzo[d]imidazol-2-yl)-2-(4-((2-fluoroethyl)sulfonyl)phenyl)ethanol]	0.154
CCS(=O)(=O)c1ccc(C(CO)c2nc3c(C)c(-c4ccccc4OC)c(C)cc3[nH]2)cc1 (stereo not drawn) [Example 117, 2-(4-(ethylsulfonyl)phenyl)-2-(5-(2-methoxyphenyl)-4,6-dimethyl-1H-benzo[d]imidazol-2-yl)ethanol]	0.149
CC(C)Oc1ccccc1-c1cc2nc(C(CC(N)=O)c3ccc(S(=O)(=O)CC4CC4)cc3)[nH]c2cc1Cl (single isomer, unassigned) [3-(6-chloro-5-(2-isopropoxyphenyl)-1H-benzo[d]imidazol-2-yl)-3-(4-((cyclopropylmethyl)sulfonyl)phenyl)propanamide]	1.41
O=S(=O)(CC1CC1)c1ccc(C(CCO)c2nc3cc(-c4ccccc4OC(F)F)c(Cl)cc3[nH]2)cc1 (single isomer, unassigned) [3-(6-chloro-5-(2-(difluoromethoxy)phenyl)-1H-benzo[d]imidazol-2-yl)-3-(4-((cyclopropylmethyl)sulfonyl)phenyl)propan-1-ol]	0.081
CCS(=O)(=O)c1ccc(C(N)c2nc3c(Cl)c(-c4ccccc4OC(F)(F)F)c(Cl)cc3[nH]2)cc1 (stereo not drawn) [Example 43, (4,6-dichloro-5-(2-(trifluoromethoxy)phenyl)-1H-benzo[d]imidazol-2-yl)(4-(ethylsulfonyl)phenyl)methanamine]	0.656
CCS(=O)(=O)c1ccc(C(O)c2nc3c(Cl)c(-c4ccccc4OC(F)(F)F)c(Cl)cc3[nH]2)c(Cl)c1 (stereo not drawn) [Example 88, (2-chloro-4-(ethylsulfonyl)phenyl)(4,6-dichloro-5-(2-(trifluoromethoxy)phenyl)-1H-benzo[d]imidazol-2-yl)methanol]	0.162
O=S(=O)(CCF)c1ccc(C(CO)c2nc3c(Cl)c(-c4ccccc4C(F)(F)F)c(Cl)cc3[nH]2)cc1 (stereo not drawn) [Example 64, 2-(4,6-dichloro-5-(2-(trifluoromethyl)phenyl)-1H-benzo[d]imidazol-2-yl)-2-(4-((2-fluoroethyl)sulfonyl)phenyl)ethanol]	0.465
CCS(=O)(=O)c1ccc(C(CC(N)=O)c2nc3c(Cl)c(N4CCC(F)(F)CC4)c(Cl)cc3[nH]2)cc1 (single isomer, unassigned) [3-(4,6-dichloro-5-(4,4-difluoropiperidin-1-yl)-1H-benzo[d]imidazol-2-yl)-3-(4-(ethylsulfonyl)phenyl)propanamide]	0.057
O=S(=O)(CC(F)(F)F)c1ccc(C(CO)c2nc3c(Cl)c(-c4ccccc4OC(F)(F)F)c(Cl)cc3[nH]2)cc1 (stereo not drawn) [Example 60, 2-(4,6-dichloro-5-(2-(trifluoromethoxy)phenyl)-1H-benzo[d]imidazol-2-yl)-2-(4-((2,2,2-trifluoroethyl)sulfonyl)phenyl)ethanol]	0.409

Other lines, results leading:

IC50 [µM]	Structure (SMILES)
0.14	O=S(=O)(CC1CC1)c1ccc(C(CO)c2nc3c(Cl)c(-c4ccccc4OC(F)(F)F)c(Cl)cc3[nH]2)c(Cl)c1 (stereo not drawn) [Example 91, 2-(2-chloro-4-((cyclopropylmethyl)sulfonyl)phenyl)-2-(4,6-dichloro-5-(2-(trifluoromethoxy)phenyl)-1H-benzo[d]imidazol-2-yl)ethanol]
0.879	CS(=O)(=O)c1ccc(Cc2nc3c(Cl)c(-c4ccccc4OC(F)(F)F)c(Cl)cc3[nH]2)cc1 [Example 56, 4,6-dichloro-2-(4-(methylsulfonyl)benzyl)-5-(2-(trifluoromethoxy)phenyl)-1H-benzo[d]imidazole]
0.433	O=S(=O)(CC(F)(F)F)c1ccc(Cc2nc3c(Cl)c(-c4ccccc4OC(F)(F)F)c(Cl)cc3[nH]2)cc1 [Example 59, 4,6-dichloro-2-(4-((2,2,2-trifluoroethyl)sulfonyl)benzyl)-5-(2-(trifluoromethoxy)phenyl)-1H-benzo[d]imidazole]
0.065	N#Cc1ccccc1-c1c(Cl)cc2[nH]c(Cc3ccc(S(=O)(=O)CC4CC4)cc3)nc2c1Cl [Example 95, 2-(4,6-dichloro-2-(4-((cyclopropylmethyl)sulfonyl)benzyl)-1H-benzo[d]imidazol-5-yl)benzonitrile]
0.023	O=S(=O)(CC1CC1)c1ccc(C(O)c2nc3c(Cl)c(-c4ccccc4Cl)c(Cl)cc3[nH]2)cc1 (stereo not drawn) [Example 94, (4-((cyclopropylmethyl)sulfonyl)phenyl)(4,6-dichloro-5-(2-chlorophenyl)-1H-benzo[d]imidazol-2-yl)methanol]
0.171	CCS(=O)(=O)c1ccc(Cc2nc3c(C)c(-c4ccccc4C(F)(F)F)c(C)cc3[nH]2)cc1 [Example 115, 2-(4-(ethylsulfonyl)benzyl)-4,6-dimethyl-5-(2-(trifluoromethyl)phenyl)-1H-benzo[d]imidazole]
0.433	CCS(=O)(=O)c1ccc(C(CO)c2nc3c(Cl)c(-c4ccccc4C(C)C)c(Cl)cc3[nH]2)cc1 (stereo not drawn) [Example 37, 2-(4,6-dichloro-5-(2-isopropylphenyl)-1H-benzo[d]imidazol-2-yl)-2-(4-(ethylsulfonyl)phenyl)ethanol]
0.535	CS(=O)(=O)c1ccc(Cc2nc3c(Cl)c(-c4ccccc4C(F)(F)F)c(Cl)cc3[nH]2)cc1 [Example 45, 4,6-dichloro-2-(4-(methylsulfonyl)benzyl)-5-(2-(trifluoromethyl)phenyl)-1H-benzo[d]imidazole]
0.049	O=S(=O)(NC1CC1)c1ccc(Cc2nc3c(Cl)c(-c4ccccc4OC(F)(F)F)c(Cl)cc3[nH]2)cc1 [Example 122, N-cyclopropyl-4-((4,6-dichloro-5-(2-(trifluoromethoxy)phenyl)-1H-benzo[d]imidazol-2-yl)methyl)benzenesulfonamide]
0.06	CCS(=O)(=O)c1ccc(Cc2nc3c(F)c(-c4ccccc4C(F)(F)F)c(F)cc3[nH]2)cc1 [Example 111, 2-(4-(ethylsulfonyl)benzyl)-4,6-difluoro-5-(2-(trifluoromethyl)phenyl)-1H-benzo[d]imidazole]
0.284	CCCS(=O)(=O)c1ccc(Cc2nc3c(Cl)c(-c4ccccc4OC(F)(F)F)c(Cl)cc3[nH]2)cc1 [Example 50, 4,6-dichloro-2-(4-(propylsulfonyl)benzyl)-5-(2-(trifluoromethoxy)phenyl)-1H-benzo[d]imidazole]
0.626	CCOc1ccccc1-c1c(Cl)cc2[nH]c(Cc3ccc(S(=O)(=O)CC)cc3)nc2c1Cl [Example 16, 4,6-dichloro-5-(2-ethoxyphenyl)-2-(4-(ethylsulfonyl)benzyl)-1H-benzo[d]imidazole]
